Laboratory results from US8574556B2, “Antibacterial pharmaceutical composition comprising Aceriphyllum rossii extract and active compounds isolated therefrom” (Korea Research Institute of Bioscience and Biotechnology, priority 2008, dated 2013).
≈ marks a conversion by molar mass, not a printed value. Like-named read-outs stand apart in the source and are kept apart here.

What was measured:
Format in all cases: cell-based
[1] = tested on: Staphylococcus aureus KCTC1916; assay: Broth microdilution MIC
Protocol: (§1) Test strains were cultured in a Mueller Hinton broth, and the antibacterial activities were determined by a broth microdilution assay. The test strains were grown to the mid-logarithmic phase, and diluted to a concentration of 10^5/ml with the same broth. 0.2 ml of the cells was added to each well of 96-well plates. The samples prepared in Examples 1 and 2 and Comparative Example 1 were serially diluted 2-fold, and added to the plates. The cells were incubated at 30° C. for 18 hrs, and cell growth was measured at 650 nm.
(§2) The antibacterial activity of Aceriphyllum rossii extract was determined with respect to Staphylococcus aureus, and the antibacterial activities of aceriphyllic acid A and 3-oxo-12-oleanen-27-oic acid were determined with respect to 15 different types of strains. Triclosan, oxacillin, and norfloxacin, which are commercially available antibiotics, were used for comparison.

[2] = tested on: Micrococcus luteus KCTC1056; assay: Broth microdilution MIC
Protocol: as §1, §2

[3] = tested on: Staphylococcus aureus CCARM3167(MRSA); assay: Broth microdilution MIC
Protocol: as §1, §2

[4] = tested on: Enterococcus faecium KCTC3122; assay: Broth microdilution MIC
Protocol: as §1, §2

[5] = tested on: Acinetobacter calcoaceticus KCTC2357; assay: Broth microdilution MIC
Protocol: as §1, §2

[6] = tested on: Streptococcus mutans KCTC3065; assay: Broth microdilution MIC
Protocol: as §1, §2

[7] = tested on: Staphylococcus aureus CCARM3505(QRSA); assay: Broth microdilution MIC
Protocol: as §1, §2

[8] = tested on: Streptococcus mutans KCTC5248; assay: Broth microdilution MIC
Protocol: as §1, §2

[9] = tested on: Bacillus subtilis KCTC1021; assay: Broth microdilution MIC
Protocol: as §1, §2

[10] = tested on: Streptococcus pneumoniae KCTC3932; assay: Broth microdilution MIC
Protocol: as §1, §2

[11] = tested on: Streptococcus mutans KCTC3289; assay: Broth microdilution MIC
Protocol: as §1, §2

[12] = tested on: Staphylococcus aureus CCARM3506(MRSA); assay: Broth microdilution MIC
Protocol: as §1, §2

[13] = tested on: Staphylococcus aureus 503; assay: Broth microdilution MIC
Protocol: as §1, §2

[14] = tested on: Staphylococcus aureus CCARM3519(QRSA); assay: Broth microdilution MIC
Protocol: as §1, §2

[15] = tested on: Staphylococcus aureus RN4220; assay: Broth microdilution MIC
Protocol: as §1, §2

[16] = tested on: Acinetobacter calcoaceticus, Micrococcus luteus, and Bacillus subtilis; assay: Broth microdilution MIC, text summary; conditions: range over Acinetobacter calcoaceticus, Micrococcus luteus and Bacillus subtilis (text summary of Table 2)
Protocol: as §1, §2

[17] = tested on: Propionibacterium acnes ATCC6919; assay: Broth microdilution MIC, anaerobic RCMI liquid media
Protocol: Propionibacterium acnes was cultured in RCMI liquid media under anaerobic conditions, and the antibacterial activities were determined by a broth microdilution assay. The test strain was pre-cultured in liquid media at 37° C. for 1 to 2 days. 15 μl of test material dissolved in DMSO was added to 3 ml of broth to a concentration of 32 ppm. The sample was serially diluted 2-fold to prepare seven samples with different concentrations. The samples were added to the pre-cultured broth to a microbial concentration of 10^5-6 cfu/ml, and cultured for 1-3 days, followed by measurement of cell growth.
as §2

[18] = tested on: Staphylococcus aureus, methicillin-resistant S. aureus, and quinolone-resistant S. aureus; assay: Broth microdilution MIC, summary over S. aureus strains; conditions: range over Staphylococcus aureus, MRSA and QRSA strains (text summary of Table 2)
Protocol: as §1, §2

[19] = tested on: cariogenic bacteria (Streptococcus mutans); assay: Broth microdilution MIC, for cariogenic bacteria; conditions: Streptococcus mutans (text summary of Table 2)
Protocol: as §1, §2

[20] = Staphylococcus aureus CCARM3167(MRSA), read-out: MIC
[21] = Staphylococcus aureus CCARM3505(QRSA), read-out: MIC
[22] = Staphylococcus aureus CCARM3506(MRSA), read-out: MIC
[23] = Staphylococcus aureus CCARM3519(QRSA), read-out: MIC
[24] = Cutibacterium acnes, ATCC6919, Propionibacterium acnes (text summary of Table 2), read-out: MIC
[25] = Propionibacterium acnes ATCC6919

Compound	MIC ([1]; read-out: MIC) [µg/mL]	MIC ([2]; read-out: MIC) [µg/mL]	MIC [3, 20] [µg/mL]	MIC ([4]; read-out: MIC) [µg/mL]	MIC ([5]; read-out: MIC) [µg/mL]	MIC ([6]; read-out: MIC) [µg/mL]	MIC [7, 21] [µg/mL]	MIC ([8]; read-out: MIC) [µg/mL]	MIC ([9]; read-out: MIC) [µg/mL]	MIC ([10]; read-out: MIC) [µg/mL]	MIC ([11]; read-out: MIC) [µg/mL]	MIC [12, 22] [µg/mL]	MIC ([13]; read-out: MIC) [µg/mL]	MIC [14, 23] [µg/mL]	MIC [15] [µg/mL]	MIC [16] [µg/mL]	MIC [17, 24] [µg/mL]	MIC [17, 25] [µg/mL]	MIC [18] [µg/mL]	MIC [19] [µg/mL]	other results
CC1(C)CC[C@]2(C)CC[C@@]3(C(=O)O)C(=CCC4[C@@]5(C)CC[C@@H](O)[C@@](C)(CO)C5CC[C@]43C)C2C1 (stereo partly shown) [Aceriphyllic acid A, Aceriphyllic Acid A]	4 (≈ 8.46 µM)	2 (≈ 4.23 µM)	4 (≈ 8.46 µM)	8 (≈ 16.9 µM)	2 (≈ 4.23 µM)	2 (≈ 4.23 µM)	4 (≈ 8.46 µM)	2 (≈ 4.23 µM)	1 (≈ 2.12 µM)	32 (≈ 67.7 µM)	4 (≈ 8.46 µM)	4 (≈ 8.46 µM)	2 (≈ 4.23 µM)	4 (≈ 8.46 µM)	4 (≈ 8.46 µM)	1 to 2 (≈ 2.12 to 4.23 µM)	2 (≈ 4.23 µM)	2 (≈ 4.23 µM)	2 to 4 (≈ 4.23 to 8.46 µM)	2 to 4 (≈ 4.23 to 8.46 µM)	
Oc1cc(Cl)ccc1Oc1ccc(Cl)cc1Cl [Triclosan]															0.006 (≈ 0.0207 µM)						MIC [1]: 0.006 µg/mL (≈ 0.0207 µM); MIC [2]: 1 µg/mL (≈ 3.45 µM); MIC ([3]; Staphylococcus aureus): 0.006 µg/mL (≈ 0.0207 µM); MIC [4]: 4 µg/mL (≈ 13.8 µM); MIC [5]: 0.003 µg/mL (≈ 0.0104 µM); MIC [6]: 1 µg/mL (≈ 3.45 µM); MIC ([7]; Staphylococcus aureus, CCARM3505): 0.006 µg/mL (≈ 0.0207 µM); MIC [8]: 1 µg/mL (≈ 3.45 µM); MIC [9]: 0.003 µg/mL (≈ 0.0104 µM); MIC [10]: 32 µg/mL (≈ 111 µM); MIC [11]: 1 µg/mL (≈ 3.45 µM); MIC ([12]; Staphylococcus aureus): 0.006 µg/mL (≈ 0.0207 µM); MIC [13]: 0.006 µg/mL (≈ 0.0207 µM); MIC ([14]; Staphylococcus aureus, CCARM3519): 0.006 µg/mL (≈ 0.0207 µM)
CC1(C)CC[C@]2(C)CC[C@@]3(C(=O)O)C(=CCC4[C@@]5(C)CCC(=O)C(C)(C)C5CC[C@]43C)C2C1 (stereo partly shown) [3-Oxo-12-oleanen-27-oic acid]	2 (≈ 4.4 µM)	2 (≈ 4.4 µM)	4 (≈ 8.8 µM)	> 64	2 (≈ 4.4 µM)	4 (≈ 8.8 µM)	8 (≈ 17.6 µM)	4 (≈ 8.8 µM)	2 (≈ 4.4 µM)	16 (≈ 35.2 µM)	4 (≈ 8.8 µM)	8 (≈ 17.6 µM)	2 (≈ 4.4 µM)	8 (≈ 17.6 µM)	4 (≈ 8.8 µM)	1 to 2 (≈ 2.2 to 4.4 µM)	2 (≈ 4.4 µM)	2 (≈ 4.4 µM)	2 to 8 (≈ 4.4 to 17.6 µM)	4 (≈ 8.8 µM)	
Cc1onc(-c2ccccc2)c1C(=O)N[C@@H]1C(=O)N2[C@@H]1SC(C)(C)[C@@H]2C(=O)O [Oxacillin]	0.25 (≈ 0.623 µM)	8 (≈ 19.9 µM)	500 (≈ 1250 µM)	2 (≈ 4.98 µM)	0.125 (≈ 0.311 µM)	0.06 (≈ 0.149 µM)	0.5 (≈ 1.25 µM)	0.06 (≈ 0.149 µM)	0.25 (≈ 0.623 µM)	2 (≈ 4.98 µM)	0.06 (≈ 0.149 µM)	500 (≈ 1250 µM)	0.25 (≈ 0.623 µM)	0.5 (≈ 1.25 µM)	0.25 (≈ 0.623 µM)						
CCn1cc(C(=O)O)c(=O)c2cc(F)c(N3CCNCC3)cc21 [Norfloxacin]	0.25 (≈ 0.783 µM)	2 (≈ 6.26 µM)	8 (≈ 25.1 µM)	8 (≈ 25.1 µM)	0.25 (≈ 0.783 µM)	8 (≈ 25.1 µM)	250 (≈ 783 µM)	8 (≈ 25.1 µM)	0.25 (≈ 0.783 µM)	2 (≈ 6.26 µM)	8 (≈ 25.1 µM)	1 (≈ 3.13 µM)	1 (≈ 3.13 µM)	125 (≈ 391 µM)	1 (≈ 3.13 µM)						
